No end group written: not given here.
Experiments:
[1] = system: yeast (Saccharomyces cerevisiae); assay: Antimicrobial assay I, yeast assay in RPMI 1640; type: cell-based; conditions: RPMI 1640 media
[2] = system: human red blood cells (RBC); assay: in vitro; type: cell-based; conditions: hemolytic assay, concentration at 50% hemolysis, 1 hour at 37° C.
[3] = system: Pseudomonas aeruginosa ATCC 9027; assay: Antimicrobial assay I, MIC by OD measurement; type: cell-based; conditions: 37° C. for 24 hours, absorbance 620 nm
[4] = system: Staphylococcus aureus ATCC 6538; assay: Antimicrobial assay I, MIC by OD measurement; type: cell-based; conditions: 37° C. for 24 hours, absorbance 620 nm
[5] = system: BMKC; assay: Anti-cancer assay, MTT, LD50; type: cell-based; conditions: BMKC cloned melanoma line, 24 hours with peptide
Excerpt: (§1) Numbers are LD50 values (μg/mL).

[6] = system: HeLaS3; assay: Anti-cancer assay, MTT, LD50; type: cell-based; conditions: 24 hours with peptide, cervical carcinoma
Excerpt: as §1

[7] = system: PC3; assay: Anti-cancer assay, MTT, LD50; type: cell-based; conditions: 24 hours with peptide, prostate adenocarcinoma
Excerpt: as §1

[8] = system: H1299; assay: Anti-cancer assay, MTT, LD50; type: cell-based; conditions: 24 hours with peptide, lung large cell carcinoma
Excerpt: as §1

[9] = system: MCF7; assay: Anti-cancer assay, MTT, LD50; type: cell-based; conditions: MCF7 breast adenocarcinoma line, MTT, 24 hours with peptide
Excerpt: as §1

[10] = system: SW480; assay: Anti-cancer assay, MTT, LD50; type: cell-based; conditions: SW480 colon adenocarcinoma line, 24 hours with peptide
Excerpt: as §1

[11] = system: WI38; conditions: MTT, 24 hours with peptide; for WI38 LD50: normal fibroblast line; for LD50 WI38: WI38 normal lung fibroblast line

Substance | yeast (MIC or MFC) [1] | LD50 [2] | paerug9027 (MIC) [3] | staph6538 (MIC) [4] | LD50 BMKC [5] | HeLaS3 LD50 [6] | PC3 LD50 [7] | H1299 LD50 [8] | LD50 MCF7 [9] | LD50 SW480 [10] | WI38 LD50 [11] | LD50 WI38 [11]
FALKALKKAL-NH2 [P170, FALKALKKAL-NH2] | 100 µg/mL | > (> indicates greater than 1000) | 100 µg/mL | 200 µg/mL | > (> indicates greater than 1000) | > (> indicates greater than 1000) | > (> indicates greater than 1000) | > (> indicates greater than 1000) | 940 µg/mL | > (> indicates greater than 1000) | > (> indicates greater than 1000) | > (> indicates greater than 1000)
FALAKKALKKAKKAL-NH2 [P40, FALAKKALKKAKKAL-NH2] | 100 µg/mL | > (> indicates greater than 1000) | 25 µg/mL | 100 µg/mL | > (> indicates greater than 1000) | > (> indicates greater than 1000) | 435 µg/mL | > (> indicates greater than 1000) | 760 µg/mL | > (> indicates greater than 1000) | > (> indicates greater than 1000) | > (> indicates greater than 1000)
KWKLF-NH2 [P131, KWKLF-NH2] | 100 µg/mL | > (> indicates greater than 1000) | 10 µg/mL | 25 µg/mL | > (> indicates greater than 1000) | > (> indicates greater than 1000) | > (> indicates greater than 1000) | > (> indicates greater than 1000) | 600 µg/mL | 555 µg/mL | > (> indicates greater than 1000) | > (> indicates greater than 1000)
KAKLF-NH2 [P130, KAKLF-NH2] | 200 µg/mL | > (> indicates greater than 1000) | 200 µg/mL | 200 µg/mL | > (> indicates greater than 1000) | > (> indicates greater than 1000) | > (> indicates greater than 1000) | > (> indicates greater than 1000) | > (> indicates greater than 1000) | > (> indicates greater than 1000) | > (> indicates greater than 1000) | > (> indicates greater than 1000)
FAKLWAKLAKKL-NH2 [P136] | 100 µg/mL | > (> indicates greater than 1000) | 50 µg/mL | 100 µg/mL | 530 µg/mL | 400 µg/mL | 900 µg/mL | 450 µg/mL | 500 µg/mL | 600 µg/mL | > (> indicates greater than 1000) | > (> indicates greater than 1000)
FAFGKGIGKVGKKLL-NH2 [P133] | > (> indicates greater than 200 μg/mL) | > (> indicates greater than 1000) | > (> indicates greater than 200 μg/mL) | > (> indicates greater than 200 μg/mL) | > (> indicates greater than 1000) | > (> indicates greater than 1000) | > (> indicates greater than 1000) | > (> indicates greater than 1000) | > (> indicates greater than 1000) | > (> indicates greater than 1000) | > (> indicates greater than 1000) | > (> indicates greater than 1000)
FAKLFAKAFKKAL-NH2 [P117, FAKLFAKAFKKAL-NH2] | 200 µg/mL | > (> indicates greater than 1000) | 200 µg/mL | 100 µg/mL | > (> indicates greater than 1000) | > (> indicates greater than 1000) | > (> indicates greater than 1000) | > (> indicates greater than 1000) | > (> indicates greater than 1000) | > (> indicates greater than 1000) | > (> indicates greater than 1000) | > (> indicates greater than 1000)
FALALKALKK-NH2 [P169] | 100 µg/mL | > (> indicates greater than 1000) | 100 µg/mL | 100 µg/mL | 530 µg/mL | > (> indicates greater than 1000) | > (> indicates greater than 1000) | 640 µg/mL | 510 µg/mL | > (> indicates greater than 1000) | > (> indicates greater than 1000) | > (> indicates greater than 1000)
FGKGIGKVGKKLL-NH2 [P132] | > (> indicates greater than 200 μg/mL) | > (> indicates greater than 1000) | 100 µg/mL | > (> indicates greater than 200 μg/mL) | > (> indicates greater than 1000) | > (> indicates greater than 1000) | > (> indicates greater than 1000) | > (> indicates greater than 1000) | > (> indicates greater than 1000) | > (> indicates greater than 1000) | > (> indicates greater than 1000) | > (> indicates greater than 1000)
FALAKALKKAL-NH2 [P166, FALAKALKKAL-NH2] | > (> indicates greater than 200 μg/mL) | > (> indicates greater than 1000) | > (> indicates greater than 200 μg/mL) | > (> indicates greater than 200 μg/mL) | > (> indicates greater than 1000) | > (> indicates greater than 1000) | > (> indicates greater than 1000) | > (> indicates greater than 1000) | > (> indicates greater than 1000) | > (> indicates greater than 1000) | > (> indicates greater than 1000) | > (> indicates greater than 1000)
FAKKALKALKKL-NH2 [P47] | 50 µg/mL | > (> indicates greater than 1000) | 100 µg/mL | 200 µg/mL | 700 µg/mL | > (> indicates greater than 1000) | > (> indicates greater than 1000) | > (> indicates greater than 1000) | 575 µg/mL | > (> indicates greater than 1000) | > (> indicates greater than 1000) | > (> indicates greater than 1000)
